# Reference: PubChem BioAssay (NCI)
#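 Briefly, cells in 96-well plates were exposed to five compound concentrations for 48 h, and endpoints were estimated by linear interpolation. The concentration for 50% growth inhibition is given as GI50. At the TGI there is no net growth.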
# Key:
# Experiment in all cases: NCI-60 cell line screen, 48 h
# [1] = tested on: HCT-15 colon
# [2] = tested on: SR leukemia
# [3] = tested on: HOP-92 NSCLC
# [4] = tested on: RXF 393 renal
# [5] = tested on: ACHN renal
# [6] = tested on: MDA-MB-231 breast
# [7] = tested on: COLO 205 colon
# [8] = tested on: CCRF-CEM leukemia
# [9] = tested on: NCI-H23 lung
# [10] = tested on: BT-549 breast
Structure (SMILES),TGI [1],TGI [2],TGI [3],TGI [4],TGI [5],TGI [6],TGI [7],TGI [8],TGI [9],TGI [10],GI50 [1],GI50 [2],GI50 [3],GI50 [4],GI50 [5],GI50 [6],GI50 [7],GI50 [8],GI50 [9],GI50 [10]
O=C1CCCc2cc3c(cc21)CC1(C3)Cc2ccc3c(c2C1)C(=O)CCC3 (stereo unspecified),> 100 µM,40.3 µM,> 100 µM,> 100 µM,55.4 µM,> 100 µM,34.9 µM,58.8 µM,> 100 µM,–,–,–,–,–,–,–,–,–,–,–
O=C1c2cccc(NCCNCCO)c2C(=O)c2cccc(NCCNCCO)c21,19 µM,–,2.9 µM,3.89 µM,8.16 µM,–,2.09 µM,2.88 µM,5.68 µM,8.85 µM,–,–,–,–,–,–,–,–,–,–
O=[N+]([O-])c1ccc(C2=Nc3ccccc3SC(c3ccccc3)C2)cc1 (stereo unspecified),30.9 µM,45.2 µM,–,40 µM,36.2 µM,–,31.8 µM,37.2 µM,–,–,–,–,–,–,–,–,–,–,–,–
COc1cc(CC(C)N)ccc1O (stereo unspecified),> 100 µM,> 100 µM,> 100 µM,> 100 µM,> 100 µM,–,> 100 µM,> 31.6 µM,> 100 µM,–,–,–,–,–,–,–,–,–,–,–
O=C(Nc1ccc(-n2cc(-c3ccncc3)c(-c3ccc(O)c(Cl)c3)n2)cc1)Nc1cccc(Cl)c1Cl,> 32.5 µM,> 32.5 µM,9.84 µM,5.25 µM,> 32.5 µM,10.3 µM,13 µM,> 32.5 µM,> 32.5 µM,–,5.33 µM,30.6 µM,1.16 µM,0.973 µM,7.82 µM,1.52 µM,4.54 µM,2.47 µM,14.6 µM,–
COc1cc2c(c(O)c1O)-c1ccc(OC)c(=O)cc1C(NC(C)=O)CC2 (stereo unspecified),> 100 µM,74.3 µM,31.1 µM,43.8 µM,> 100 µM,–,12.6 µM,37.1 µM,54.7 µM,–,–,–,–,–,–,–,–,–,–,–
NC(=O)c1ncn2c1NC(=O)CC2,> 100 µM,–,> 100 µM,> 100 µM,–,–,> 100 µM,> 100 µM,> 100 µM,–,–,–,–,–,–,–,–,–,–,–
CCOC(=O)[C@@H]1ON2O[C@@H](OC3CCCC3(c3ccccc3)c3ccccc3)C[C@H]3OC(=O)[C@@H]1C32 (stereo partly specified),60.7 µM,61.4 µM,> 100 µM,48.2 µM,37 µM,49 µM,> 100 µM,64.8 µM,37.2 µM,–,–,–,–,–,–,–,–,–,–,–
O/C(=C\c1nc2ccccc2nc1NC12CC3CC(CC(C3)C1)C2)c1ccc(Br)cc1,> 10 µM,–,–,> 10 µM,> 10 µM,> 10 µM,> 10 µM,> 10 µM,> 10 µM,> 10 µM,–,–,–,–,–,–,–,–,–,–
CC1=CC(=O)CC2(C)CCC(C(C)CC(=O)CC(C)C)CC12 (stereo unspecified),> 100 µM,41.6 µM,> 100 µM,> 100 µM,31.3 µM,> 100 µM,31.8 µM,61.2 µM,> 100 µM,–,–,–,–,–,–,–,–,–,–,–
COc1cc(CNc2nc3cc(C(F)(F)F)ccc3nc2-c2ccccc2)cc(OC)c1OC,56 µM,> 100 µM,–,51.7 µM,> 100 µM,67.5 µM,37.3 µM,> 100 µM,> 100 µM,–,–,–,–,–,–,–,–,–,–,–
C[C@]12CC[C@H](O)C=C1CC[C@@H]1[C@@H]2CC[C@]2(C)C(c3ccc(=O)oc3)CC[C@]12O (stereo partly specified),0.0803 µM,–,0.0448 µM,< 0.0125 µM,–,–,0.188 µM,0.151 µM,0.023 µM,–,–,–,–,–,–,–,–,–,–,–
O=C(CCCN1CCC2(CC1)C(=NC1CCCCC1)NC(=O)N2c1ccccc1)c1ccc(F)cc1,> 100 µM,46.1 µM,37.8 µM,89 µM,> 100 µM,26.1 µM,31.2 µM,64.4 µM,48.1 µM,–,–,–,–,–,–,–,–,–,–,–
CC(C)CCn1nc(N)c2nc3ccccc3nc21,–,> 100 µM,> 100 µM,> 100 µM,> 100 µM,–,–,> 100 µM,> 100 µM,> 100 µM,–,–,–,–,–,–,–,–,–,–
CCCCC#CS(=O)(=O)C(F)(F)F,> 100 µM,–,> 84.4 µM,78.1 µM,–,–,> 100 µM,> 100 µM,> 100 µM,–,–,–,–,–,–,–,–,–,–,–
C=C(C)[C@@]1(O[Si](C)(C)C)CCCC[C@@H]1CC(Sc1ccccc1)Sc1ccccc1,28.6 µM,31.5 µM,26 µM,24.6 µM,28.8 µM,32.1 µM,38.9 µM,36.2 µM,30.9 µM,–,–,–,–,–,–,–,–,–,–,–
CC1(C)[C@@H](Cn2cnc3c(Cl)nc(N)nc32)CC[C@@]1(C)CO,> 100 µM,–,> 100 µM,> 100 µM,> 100 µM,> 100 µM,> 100 µM,> 100 µM,–,–,–,–,–,–,–,–,–,–,–,–
CC(C)(C)C(=O)C(Cc1ccccc1)C(=O)C(C)(C)C,> 100 µM,> 100 µM,> 100 µM,> 100 µM,> 100 µM,> 100 µM,> 100 µM,> 100 µM,> 100 µM,–,–,–,–,–,–,–,–,–,–,–
c1csc(-c2c3ccc(=[N+]4CCCCC4)cc-3oc3cc(N4CCCCC4)ccc23)c1,–,–,0.309 µM,0.273 µM,–,–,–,1.07 µM,–,0.32 µM,–,–,0.127 µM,0.133 µM,–,–,–,0.0503 µM,–,0.135 µM
CC(C)(C)OC(=O)n1c(-c2ccccc2F)cc(=O)c2cc3c(cc21)OCO3,> 31.9 µM,> 34.6 µM,> 100 µM,> 40.3 µM,> 58.7 µM,–,–,11.1 µM,> 100 µM,> 100 µM,–,–,–,–,–,–,–,–,–,–
